Measurements taken from article PMC6429183, “Identification of Compounds That Inhibit Estrogen-Related Receptor Alpha Signaling Using High-Throughput Screening Assays” (Molecules, 2019).
Values joined by “and” are separate entries in the source; they are usually repeats but may differ in a detail not shown here. Identical values can stand only once. Like-named read-outs stand apart in the source and are kept apart here.

How the values were obtained:
[1] = tested on: ERR reporter HEK293 cells; assay: CellTiter-Fluor cell viability assay multiplexed with ERR reporter assay; assay type: cell-based; settings: for EC50: Homo sapiens; for ERR-HEK293 Follow-Up Viability EC50: follow-up screen
Method: (§1) ERR or PGC/ERR reporter HEK293 cells suspended in culture medium without puromycin were dispensed at 2500 cells/5 μL/well in tissue culture–treated 1536-well white assay plates (Greiner Bio-One North America, Monroe, NC, USA) using a Thermo Scientific Multidrop Combi (ThermoFisher Scientific, Inc.). […] After the cells were incubated at 37 °C with 5% CO2 for 6 h, 23 nL of compounds or control, XTC790, was transferred into the assay plates using a Wako Pintool station (Wako Automation, San Diego, CA, USA). The assay plates were incubated at 37 °C for 18 h, followed by the addition of 5 μL ONE-Glo luciferase reagent (Promega, Madison, WI, USA) using a Flying Reagent Dispenser (Aurora Discovery, Carlsbad, CA, USA). After 30 min of incubation at room temperature, the luminescence intensity of the assay plates was quantified using a ViewLux plate reader (PerkinElmer, Shelton, CT, USA). The assays were performed three times for each compound concentration. These ERR and PGC/ERR reporter assays were multiplexed with the CellTiter-Fluor Cell Viability Assay (Promega), a fluorescence-based cell viability assay, to assess compound cytotoxicity.
The qHTS data were analyzed as described previously. […] The DMSO-only compound plates at the beginning and end of the compound plate stack were used to correct the data set by applying an in-house pattern correction algorithm. The half maximum inhibition values (IC50) for each compound and maximum response (efficacy) values were obtained by fitting the concentration-response curves of each compound to a four-parameter Hill equation [91]. […] For each reading, the activity outcome of a test compound was first categorized by the average curve rank from the triplicate runs and the reproducibility calls. The final activity outcome of each compound was based on the ERR antagonist readout activity and cell viability counter screen.

[2] = tested on: PGC/ERR reporter HEK293 cells; assay: CellTiter-Fluor cell viability assay multiplexed with PGC/ERR reporter assay; assay type: cell-based; settings: for EC50: Homo sapiens; for PGC/ERR-HEK293 Follow-Up Viability EC50: follow-up screen
Method: as §1
The qHTS data were analyzed as described previously. Each titration point was normalized relative to the positive control compound (XCT790 = −100%) and DMSO-only wells (0%) according to the following equation: % Activity = [(Vcompound − VDMSO)/(VDMSO − Vpos)] × 100, where Vcompound denotes the compound well values, Vpos denotes the median value of the positive control wells, and VDMSO denotes the median values of the DMSO-only wells. The DMSO-only compound plates at the beginning and end of the compound plate stack were used to correct the data set by applying an in-house pattern correction algorithm. The half maximum inhibition values (IC50) for each compound and maximum response (efficacy) values were obtained by fitting the concentration-response curves of each compound to a four-parameter Hill equation [91]. Compounds were designated as Class 1–4 according to the type of concentration–response curve observed. For each reading, the activity outcome of a test compound was first categorized by the average curve rank from the triplicate runs and the reproducibility calls. The final activity outcome of each compound was based on the ERR antagonist readout activity and cell viability counter screen.

IDH3α = assay: qRT-PCR mRNA expression of ERR downstream gene IDH3α; assay type: cell-based; settings: ERR reporter cells, vs GAPDH, DMSO = 0%
Method: (§2) Total RNA was isolated from treated ERR reporter cells using an RNeasy Mini Kit (Qiagen, Germantown, MD, USA), homogenized using a QIAshredder (Qiagen), and reverse transcribed with a High-Capacity RNA-to-cDNA™ Kit (ThermoFisher Scientific, Inc.) following the manufacturers’ instructions. Expression of ERRα, COX8α, IDH3α, PPARα, COX4I1, and cytochrome c genes was normalized against GAPDH. All primers were purchased from ThermoFisher Scientific, Inc. Real-time PCR assays were performed in 384-well plates on a QuantStudio 5 (Applied Biosystems, Foster City, CA, USA) with TaqMan™ Gene Expression Master Mix (ThermoFisher Scientific, Inc.). Induction values were calculated using the equation: Fold = 2^ΔΔCt, where ΔCt represents the differences in cycle threshold numbers between each of the target genes and GAPDH, and ΔΔCt represents the relative change in these differences between control and treatment groups. Experimental data are presented as a mean of triplicate determinations ± SD. Statistical comparisons were made by t-test, while the statistical significance was set at p values of <0.05 (light blue), <0.01 (medium blue), and <0.001 (dark blue).

cytochrome c = assay: qRT-PCR mRNA expression of ERR downstream gene cytochrome c; assay type: cell-based; settings: ERR reporter cells, vs GAPDH, DMSO = 0%
Method: as §2

[3] = molecular target: T1, estrogen-related receptor alpha (ERRα) (Homo sapiens, UniProt P11474)
T1 sequence (P11474 1-423): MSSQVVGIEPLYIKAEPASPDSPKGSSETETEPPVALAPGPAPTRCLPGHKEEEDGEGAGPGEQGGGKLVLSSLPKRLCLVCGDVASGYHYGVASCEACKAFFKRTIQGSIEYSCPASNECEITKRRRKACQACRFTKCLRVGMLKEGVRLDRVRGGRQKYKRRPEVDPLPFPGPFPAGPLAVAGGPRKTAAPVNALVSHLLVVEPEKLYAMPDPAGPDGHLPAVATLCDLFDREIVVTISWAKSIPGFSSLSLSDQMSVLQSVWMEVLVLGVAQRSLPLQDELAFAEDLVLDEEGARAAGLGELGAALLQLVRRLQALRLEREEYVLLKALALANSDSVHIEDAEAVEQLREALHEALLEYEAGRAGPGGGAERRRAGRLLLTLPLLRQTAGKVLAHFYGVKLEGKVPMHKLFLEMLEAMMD

[4] = molecular target: T2, ERRα with PGC-1α (PGC/ERR pathway) (Homo sapiens, UniProt P11474)
T2 sequence (P11474 1-423): T1 sequence (P11474 1-423)

[5] = molecular target: T2, ERRα with PGC-1α (PGC/ERR pathway); assay: PGC/ERR reporter (luciferase) qHTS assay, PGC/ERR-HEK293; settings: for EC50: mean ± SD, triplicate; for activity in the ERR/PGC assay: in words
[6] = molecular target: T1, estrogen-related receptor alpha (ERRα); assay: ERR reporter (luciferase) antagonist qHTS assay, ERR-HEK293; settings: for EC50: mean ± SD, triplicate; for activity in the ERR assay: in words
COX4I1 = assay: qRT-PCR mRNA expression of ERR downstream gene COX4I1; assay type: cell-based; settings: 175 nM; ERR reporter cells; vs GAPDH, DMSO = 0%
Method: as §2, with “Experimental data are presented as a mean of triplicate determinations ± SD. Statistical comparisons were made by t-test, while the statistical significance was set at p values of <0.05 (light blue), <0.01 (medium blue), and <0.001 (dark blue).” left out

[7] = HEK293, primary qHTS, read-out: PGC/ERR-HEK293 Primary Viability EC50 (converted)
[8] = PGC/ERR-HEK293 Follow-Up EC50, follow-up screen
[9] = PGC/ERR-HEK293 Primary EC50, primary qHTS, 18 h
[10] = ERR-HEK293 Follow-Up EC50, follow-up (confirmation) screen
[11] = ERR-HEK293 Primary EC50, primary qHTS, 18 h, 15 concentrations
[12] = primary qHTS, viability counter screen

SMILES	ERR-HEK293 Follow-Up Viability EC50 [1]	EC50 [2, 7]	PGC/ERR-HEK293 Follow-Up Viability EC50 [2]	ERR-HEK293 Follow-Up Efficacy [3]	ERR-HEK293 Primary Efficacy [3]	PGC/ERR-HEK293 Follow-Up Efficacy [4]	PGC/ERR-HEK293 Primary Efficacy [4]	EC50 [5, 8]	EC50 [5, 9]	EC50 [6, 10]	EC50 [6, 11]	ERR-HEK293 Primary Viability EC50 [1, 12]	activity in the ERR/PGC assay [5]	activity in the ERR assay [6]	other results
COC(=O)N(OC)c1ccccc1COc1ccn(-c2ccc(Cl)cc2)n1 [Pyraclostrobin]	Inactive	74500 nM	Inactive	−80.0 ± 5.67%	−90.7 ± 11.9%	−42.1 ± 9.82%	−58.2 ± 4.17%	539 ± 760 nM	838 ± 771 nM	762 nM	239 ± 130 nM	–	–	–	EC50 ([1]; HEK293, primary qHTS, viability counter screen, read-out: ERR-HEK293 Primary Viability EC50 (converted)): 40900 nM; Percent inhibition of mRNA gene expression, IDH3α (IDH3α; 1 µM): 5.06 ± 5.03%; Percent inhibition of mRNA gene expression, Cytochrome C (cytochrome c; 1 µM): 11.0 ± 8.54%
CC(C)(C)c1ccc(CSc2cnn(C(C)(C)C)c(=O)c2Cl)cc1 [Pyridaben]	Inactive	–	Inactive	−94.1 ± 13.4%	−77.3 ± 4.10%	−63.1 ± 29.7%	−57.6 ± 8.49%	43.4 ± 20 nM	7.81 ± 3.01 nM	24.5 ± 9.42 nM	5.92 ± 0.815 nM	Inactive	antagonism	potent antagonists	PGC/ERR-HEK293 Primary Viability EC50 ([2]; primary qHTS): Inactive; Percent inhibition of mRNA gene expression, IDH3α (IDH3α; 15 nM): 14.6%
C=C(C)[C@H]1Cc2c(ccc3c2O[C@@H]2COc4cc(OC)c(OC)cc4[C@@H]2C3=O)O1 [Rotenone]	–	1010 nM	–	–	–	–	–	61.8 ± 61 nM	7.42 ± 2.07 nM	16 ± 6.71 nM	13.3 ± 4.76 nM	Inactive	antagonism	potent antagonists	EC50 ([1]; HEK293, read-out: ERR-HEK293 Follow-Up Viability EC50): 429 nM; EC50 ([2]; HEK293, follow-up screen, read-out: PGC/ERR-HEK293 Follow-Up Viability EC50 (converted)): 2970 nM; Percent inhibition of mRNA gene expression, IDH3α (IDH3α; 175 nM): 22.4% and 22.4 ± 3.14%; Percent inhibition of mRNA gene expression, COX4I1 (COX4I1): 2.34 ± 3.78%; Percent inhibition of mRNA gene expression, Cytochrome C (cytochrome c; 175 nM): 27.3% and 27.3 ± 7.33%; PGC/ERR-HEK293 Follow-Up Efficacy ([5]; follow-up screen, negative = antagonism, positive = agonism): −41.9 ± 8.70%; PGC/ERR-HEK293 Primary Efficacy ([5]; primary qHTS, negative = antagonism, positive = agonism): −31.0 ± 4.14%; ERR-HEK293 Follow-Up Efficacy ([6]; follow-up screen, relative to XCT790 = −100%): −95.8 ± 17.8%; ERR-HEK293 Primary Efficacy ([6]; primary qHTS, relative to XCT790 = −100%, DMSO = 0%): −92.4 ± 3.03%
